{"source": "patent US20040152722A1", "about": "(priority 2001, published 2004)", "key": {"[1]": {"tested_on": "Tremor Model of Mice Induced by Agonist of Cholinergic M-Receptor: Arecaline", "details": "mouse, in vivo, po"}, "[2]": {"tested_on": "Rigidity Model of Mouse Induced By Haloperidol", "details": "in vivo, po"}}}
{"compound": "OC(CCN1CCCCC1)(c1ccccc1)C1CCCCC1", "note": "(centres unmarked) [Benzhexol]", "values": [{"measurement": "ED50 + L95", "setting": "[1]", "result": "8.82 ± 0.83", "unit": "mg/kg"}, {"measurement": "ED50 + L95", "setting": "[2]", "result": "19.56 ± 1.44", "unit": "mg/kg"}]}
